Data from publication PMC6193938, “Characterization of a novel AICARFT inhibitor which potently elevates ZMP and has anti-tumor activity in murine models” (Scientific Reports, 2018).

Tests used:
MUSK = biological target: T1, MUSK (Homo sapiens, UniProt O15146); assay: CEREP protein kinase assay; assay type: biochemical
T1 construct: purchased CEREP Panlabs (Eurofins)
T1 sequence (O15146 24-869): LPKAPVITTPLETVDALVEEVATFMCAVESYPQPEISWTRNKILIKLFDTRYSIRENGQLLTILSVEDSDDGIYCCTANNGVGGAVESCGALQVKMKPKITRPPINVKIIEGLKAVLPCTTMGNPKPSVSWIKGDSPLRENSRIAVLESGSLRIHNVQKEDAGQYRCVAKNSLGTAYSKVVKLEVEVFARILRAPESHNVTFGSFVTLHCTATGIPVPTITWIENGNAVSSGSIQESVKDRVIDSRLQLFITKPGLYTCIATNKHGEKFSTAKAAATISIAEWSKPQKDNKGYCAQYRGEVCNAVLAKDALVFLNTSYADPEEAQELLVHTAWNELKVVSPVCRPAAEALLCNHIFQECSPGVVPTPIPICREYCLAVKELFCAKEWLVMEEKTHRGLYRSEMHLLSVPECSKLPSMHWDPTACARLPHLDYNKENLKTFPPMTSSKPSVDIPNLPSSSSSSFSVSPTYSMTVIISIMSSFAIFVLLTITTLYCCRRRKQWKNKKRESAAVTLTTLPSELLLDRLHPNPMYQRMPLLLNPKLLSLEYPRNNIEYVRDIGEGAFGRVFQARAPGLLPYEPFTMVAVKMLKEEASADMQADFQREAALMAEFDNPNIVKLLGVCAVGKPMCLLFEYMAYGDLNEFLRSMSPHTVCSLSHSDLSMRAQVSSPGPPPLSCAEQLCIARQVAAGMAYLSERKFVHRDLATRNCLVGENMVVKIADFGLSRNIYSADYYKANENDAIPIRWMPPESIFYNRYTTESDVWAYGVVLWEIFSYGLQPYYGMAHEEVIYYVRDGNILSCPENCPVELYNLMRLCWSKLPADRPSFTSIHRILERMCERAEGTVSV

EPHB2 = biological target: T2, EPHB2 (Homo sapiens, UniProt P29323); assay: CEREP protein kinase assay; assay type: biochemical
T2 construct: purchased CEREP Panlabs (Eurofins)
T2 sequence (P29323 19-1055): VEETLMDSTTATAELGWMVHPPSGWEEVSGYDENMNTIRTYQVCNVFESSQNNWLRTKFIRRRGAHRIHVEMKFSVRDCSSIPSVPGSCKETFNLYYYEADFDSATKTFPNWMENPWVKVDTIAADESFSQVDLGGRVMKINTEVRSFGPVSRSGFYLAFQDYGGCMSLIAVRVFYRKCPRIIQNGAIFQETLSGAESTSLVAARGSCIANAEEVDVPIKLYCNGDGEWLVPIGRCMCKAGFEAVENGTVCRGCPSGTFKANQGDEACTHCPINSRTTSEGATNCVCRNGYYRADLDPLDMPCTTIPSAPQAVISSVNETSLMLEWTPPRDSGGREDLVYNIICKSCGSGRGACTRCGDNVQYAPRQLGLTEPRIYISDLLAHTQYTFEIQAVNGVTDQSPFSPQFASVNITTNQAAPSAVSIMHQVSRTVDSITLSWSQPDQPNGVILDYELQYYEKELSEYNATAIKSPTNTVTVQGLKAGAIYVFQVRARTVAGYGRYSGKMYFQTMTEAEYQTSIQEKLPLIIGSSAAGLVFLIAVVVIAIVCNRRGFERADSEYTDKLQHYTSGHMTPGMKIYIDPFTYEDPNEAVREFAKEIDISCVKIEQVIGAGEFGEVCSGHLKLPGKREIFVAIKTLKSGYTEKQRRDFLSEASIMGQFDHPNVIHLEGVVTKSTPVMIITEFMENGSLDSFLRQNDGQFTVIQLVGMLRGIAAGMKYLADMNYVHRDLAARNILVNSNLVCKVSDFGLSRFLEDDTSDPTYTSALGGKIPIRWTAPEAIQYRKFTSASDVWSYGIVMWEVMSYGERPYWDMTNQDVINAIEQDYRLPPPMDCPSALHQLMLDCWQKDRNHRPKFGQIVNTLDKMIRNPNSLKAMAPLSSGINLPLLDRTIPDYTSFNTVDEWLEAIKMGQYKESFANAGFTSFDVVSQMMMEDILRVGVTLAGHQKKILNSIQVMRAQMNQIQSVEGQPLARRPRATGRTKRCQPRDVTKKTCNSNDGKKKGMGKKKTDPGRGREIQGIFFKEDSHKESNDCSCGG

cell lines of Table 1 = assay: MS detection of ZMP in cultured cells, average over cell lines; assay type: cell-based; conditions: Homo sapiens
Protocol: Cells lines were acquired from cell banks, see supplemental material, grown using the cell banks recommended culture conditions (Supplemental Table 3). In some experiments noted “low folate” the cells were washed and grown in folate free RPMI-1640 media (Gibco #27016-021) supplemented with 5 ml 1 M Hepes, 5 ml 100 mM Na pyruvate, 2.5 mg/ml glucose and 10% defined FBS (Hyclone #SH30070) per 500 mL media for 5–7 days to deplete intracellular folate levels prior to the start of the experiment. Where noted, cells were maintained in complete “high folate” RPMI-1640 media (ATCC #30-2001) with 10% defined FBS to contrast with the low folate conditions.
ZMP was detected in cultured cells via mass spec analysis. Cells were plated in 96-well plates at 25,000 cells per well in 100 µL with either high or low folate RPMI media and incubated overnight at 37 °C with 5% CO2. Cells were treated with inhibitor compounds for 16 hours, 0.5% DMSO final concentration. […]
ZMP, AICAr and dUMP were detected using positive ion TurboIonSpray® multiple reaction monitoring mode and the data were processed with AB Sciex MultiQuant™. Back-calculated ZMP concentrations were fit to a four-parameter logistic equation using ACTIVITYBASE 4.0 to determine EC50 values relative to the maximum observed metabolite levels.

FGFR4 = biological target: T3, FGFR4 (Homo sapiens, UniProt P22455); assay: CEREP protein kinase assay; assay type: biochemical
T3 construct: purchased CEREP Panlabs (Eurofins)
T3 sequence (P22455 22-802): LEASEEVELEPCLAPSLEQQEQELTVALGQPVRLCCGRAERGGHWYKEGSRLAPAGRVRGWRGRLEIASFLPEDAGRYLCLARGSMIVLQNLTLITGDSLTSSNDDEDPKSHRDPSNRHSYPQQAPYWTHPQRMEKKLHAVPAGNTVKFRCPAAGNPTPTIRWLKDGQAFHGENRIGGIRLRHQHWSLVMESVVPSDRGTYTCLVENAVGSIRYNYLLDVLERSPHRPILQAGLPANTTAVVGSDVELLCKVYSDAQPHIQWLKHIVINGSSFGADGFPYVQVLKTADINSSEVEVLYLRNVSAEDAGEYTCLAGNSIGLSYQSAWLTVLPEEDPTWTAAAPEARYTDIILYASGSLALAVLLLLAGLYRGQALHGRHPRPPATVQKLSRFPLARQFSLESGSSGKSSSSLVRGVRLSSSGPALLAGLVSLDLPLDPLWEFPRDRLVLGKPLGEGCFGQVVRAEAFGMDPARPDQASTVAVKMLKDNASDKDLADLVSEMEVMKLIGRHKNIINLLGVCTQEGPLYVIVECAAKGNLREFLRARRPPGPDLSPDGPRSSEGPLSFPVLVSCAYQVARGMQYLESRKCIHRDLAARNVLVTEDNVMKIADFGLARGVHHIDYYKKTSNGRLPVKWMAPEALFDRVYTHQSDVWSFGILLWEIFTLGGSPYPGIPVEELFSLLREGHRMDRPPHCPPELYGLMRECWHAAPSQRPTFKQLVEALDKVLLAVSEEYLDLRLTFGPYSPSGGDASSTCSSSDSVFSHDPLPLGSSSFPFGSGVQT

With `O=c1[nH]ccc2cc(F)c(NS(=O)(=O)c3ccc(N4CC[C@@H](O)C4)s3)cc12` [LSN3213128, N-(6-Fluoro-1-oxo-1,2-dihydroisoquinolin-7-yl)-5-[(3R)-3-hydroxypyrrolidin-1-yl]thiophene-2-sulfonamide] the inhibition at 0.2 µM (MUSK; @ 0.2 uM) was -4.24%, the inhibition at 2 µM (MUSK; @ 2 uM) was 5.22% and the inhibition at 20 µM (MUSK; @ 20 uM) was -2.74%. For the same compound, the inhibition at 0.2 µM (EPHB2; @ 0.2 uM) was -14.3%, the inhibition at 2 µM (EPHB2; @ 2 uM) was 8.96% and the inhibition at 20 µM (EPHB2; @ 20 uM) was 12%. For the same compound, the EC50 (cell lines of Table 1; low folate media, 12 cell lines) was 4.9 ± 2.6 nM, the EC50 (cell lines of Table 1; normal RPMI, 8 cell lines) was 1210 nM and the inhibition at 0.2 µM (FGFR4; @ 0.2 uM) was 0.737%. It also gave an inhibition at 2 µM (FGFR4; @ 2 uM) of 13.2% and an inhibition at 20 µM (FGFR4; @ 20 uM) of 8.82%.
